What all share (assay type): in vivo
Series [1] has as its system Oryza sativa. The experiment in a line: Greenhouse post-emergence herbicidal activity on crop ORYSA (rice). An excerpt:
(§1) The culture containers used were plastic flowerpots containing loamy sand with approximately 3.0% of humus as the substrate. The seeds of the test plants were sown separately for each species.
(§2) For the post-emergence treatment, the test plants were first grown to a height of 3 to 15 cm, depending on the plant habit, and only then treated with the active ingredients which had been suspended or emulsified in water. For this purpose, the test plants were either sown directly and grown in the same containers, or they were first grown separately as seedlings and transplanted into the test containers a few days prior to treatment.
(§3) Depending on the species, the plants were kept at 10-25° C. or 20-35° C., respectively.
(§4) The test period extended over 2 to 4 weeks. During this time, the plants were tended, and their response to the individual treatments was evaluated.
(§5) Evaluation was carried out using a scale from 0 to 100. 100 means no emergence of the plants, or complete destruction of at least the aerial moieties, and 0 means no damage, or normal course of growth. A good herbicidal activity is given at values of at least 70 and a very good herbicidal activity is given at values of at least 85.

The subject of series [2] is Amaranthus retroflexus. The experiment in a line: Greenhouse post-emergence herbicidal activity, AMARE. The conditions noted are these: AMARE; for pest or weed control at 2000 g/ha: 2 kg/ha, scale 0 to 100, read-out: Herbicidal activity.
Excerpt: as §1, §2, §3, §4, §5

In series [3] the test system is Chenopodium album. The experiment in a line: Greenhouse post-emergence herbicidal activity, CHEAL.
Excerpt: as §1, §2, §3, §4, §5

In series [4] the test system is Setaria viridis. The experiment in a line: Greenhouse post-emergence herbicidal activity, SETVI.
Excerpt: as §1, §2, §3, §4, §5

Series [5] has as its system Abutilon theophrasti. The experiment in a line: Greenhouse post-emergence herbicidal activity, ABUTH. The conditions noted are these: ABUTH; for pest or weed control at 2000 g/ha: 2 kg/ha, scale 0 to 100, read-out: Herbicidal activity.
Excerpt: as §1, §2, §3, §4, §5

Series [6] has as its system Zea mays. The experiment in a line: Greenhouse post-emergence herbicidal activity on crop ZEAMX (corn, maize). On the set-up: key: 0 = no damage/normal growth, 100 = no emergence or complete destruction.
Excerpt: as §1, §2, §3, §4, §5

The subject of series [7] is Echinocloa crus-galli. The experiment in a line: Greenhouse post-emergence herbicidal activity, ECHCG. As to conditions: Echinochloa crus-galli, ECHCG.
Excerpt: as §1, §2, §3, §4, §5

In series [8] the test system is Cirsium arvense. The experiment in a line: Greenhouse post-emergence herbicidal activity, CIRAR. The conditions noted are these: CIRAR, 0.063 kg/ha, scale 0 to 100, read-out: Herbicidal activity.
Excerpt: as §1, §2, §3, §4, §5

For series [9], the system named is Capsella bursa-pastoris. The experiment in a line: Greenhouse post-emergence herbicidal activity, CAPBP. As to conditions: 0.063 kg/ha, scale 0 to 100.
Excerpt: as §1, §2, §3, §4, §5

Series [10] relates to Eriochloa villosa. The experiment in a line: Greenhouse post-emergence herbicidal activity, ERBVI. The conditions noted are these: 0.031 kg/ha, scale 0 to 100.
Excerpt: as §1, §2, §3, §4, §5

The test system of series [11] is Setaria faberi. The experiment in a line: Greenhouse post-emergence herbicidal activity, SETFA. As to conditions: 0.25 kg/ha, scale 0 to 100.
Excerpt: as §1, §2, §3, §4, §5

Series [12] has as its system Stellaria media. The experiment in a line: Greenhouse post-emergence herbicidal activity, STEME.
Excerpt: as §1, §2, §3, §4, §5

Setting [13] is: ORYSA (rice, crop), 0.031 kg/ha, scale 0 to 100.
[14] abbreviates: ORYSA (rice, crop), 0.063 kg/ha, scale 0 to 100.
The mark [15] stands for this setting: ORYSA (rice, crop), 0.125 kg/ha, scale 0 to 100.
The mark [16] stands for this setting: ZEAMX (corn, crop), 0.125 kg/ha, scale 0 to 100.
[17] abbreviates: ZEAMX (corn, crop), 0.063 kg/ha, scale 0 to 100.
Where [18] appears, read: ZEAMX (corn, crop), 0.031 kg/ha, scale 0 to 100.
Setting [19] is: crop ZEAMX (corn, maize), application rate 0.031 kg/ha.

SMILES strings stand for the structures.

Take `CC(C)N(c1c(Cl)ccc(C2=C(O)c3ncccc3CS2(=O)=O)c1Cl)S(C)(=O)=O` [I-10, N-[2,6-dichloro-3-(8-hydroxy-6,6-dioxo-5H-thiopyrano[4,3-b]pyridin-7-yl)phenyl]-N-isopropyl-methanesulfonamide]: the Herbicidal activity amounted to 10 in series [1] (setting [13]); 10 in series [1] (setting [14]); 15 in series [1] (setting [15]); 98 in [4] (2 kg/ha, scale 0 to 100); 10 in series [6] (setting [16]). The pest or weed control at 125 g/ha in [2] (0.125 kg/ha, scale 0 to 100) stood at 70%; in series [3] (0.125 kg/ha, scale 0 to 100) it was 90%. The pest or weed control at 2000 g/ha in series [2] was found to be 100%; in series [5], 98%. In addition, the pest or weed control at 31 g/ha in series [3] (0.031 kg/ha, scale 0 to 100) came out at 85%. In [3] (0.063 kg/ha, scale 0 to 100), the pest or weed control at 63 g/ha was found to be 85%.

`CCS(=O)(=O)N(C)c1c(Cl)ccc(C2=C(O)c3ncccc3C(C)(C)S2(=O)=O)c1Cl` [I-19, N-[2,6-dichloro-3-(8-hydroxy-5,5-dimethyl-6,6-dioxo-thiopyrano[4,3-b]pyridin-7-yl)phenyl]-N-methyl-ethanesulfonamide]: the pest or weed control at 31 g/ha came to 98% in series [7] (0.031 kg/ha, scale 0 to 100); 98% in series [2] (0.031 kg/ha, scale 0 to 100); 98% in [3] (0.031 kg/ha, scale 0 to 100). The pest or weed control at 125 g/ha in series [7] (0.125 kg/ha, scale 0 to 100) amounted to 100%; in series [2] (0.125 kg/ha, scale 0 to 100) it was 100%; in [3] (0.125 kg/ha, scale 0 to 100) it was 100%. In addition, the pest or weed control at 63 g/ha in series [2] (0.063 kg/ha, scale 0 to 100) is 100%; in [8], 100%. Further, the figures for the pest or weed control at 2000 g/ha in series [2] and in series [5] were 100% and 98%, respectively. For the same compound, the Herbicidal activity in series [9] amounted to 100; in [4] (2 kg/ha, scale 0 to 100) it was 100; in [6] (setting [17]), 0.

As to `CN(C)S(=O)(=O)Oc1c(Cl)ccc(C2=C(O)c3ncccc3CS2(=O)=O)c1Cl` [I-22], the Herbicidal activity amounted to 30 in series [1] (setting [13]); 35 in series [1] (setting [14]); 40 in series [1] (setting [15]); 98 in series [4] (2 kg/ha, scale 0 to 100); 0 in series [6] (setting [18]); 0 in series [6] (setting [17]). The Herbicidal activity in series [6] (setting [16]) stood at 15. In series [7] (0.031 kg/ha, scale 0 to 100), this compound registered a pest or weed control at 31 g/ha of 80%. Besides, the pest or weed control at 63 g/ha in series [7] (0.063 kg/ha, scale 0 to 100) came out at 90%; in [2] (0.063 kg/ha, scale 0 to 100) it was 70%; in series [3] (0.063 kg/ha, scale 0 to 100), 95%. Moreover, the pest or weed control at 125 g/ha in series [7] (0.125 kg/ha, scale 0 to 100) was determined as 95%; in [2] (0.125 kg/ha, scale 0 to 100) it was 75%; in series [3] (0.125 kg/ha, scale 0 to 100) it was 100%. For the same compound, the pest or weed control at 2000 g/ha in [7] (2 kg/ha, scale 0 to 100, read-out: Herbicidal activity) is 100%; in series [2] it was 100%.

On to `CN(c1c(Cl)ccc(C2=C(O)c3ncccc3C(C)(C)S2(=O)=O)c1Cl)S(=O)(=O)C1CC1` [I-28, N-[2,6-dichloro-3-(8-hydroxy-5,5-dimethyl-6,6-dioxo-thiopyrano[4,3-b]pyridin-7-yl)phenyl]-N-methyl-cyclopropanesulfonamide], for which the pest or weed control at 63 g/ha in [7] (0.063 kg/ha, scale 0 to 100) came out at 98%; in series [2] (0.063 kg/ha, scale 0 to 100) it was 98%; in series [3] (0.063 kg/ha, scale 0 to 100), 98%. Further, the pest or weed control at 125 g/ha in [7] (0.125 kg/ha, scale 0 to 100) is 100%; in series [2] (0.125 kg/ha, scale 0 to 100), 98%; in [3] (0.125 kg/ha, scale 0 to 100), 98%. Further, the pest or weed control at 250 g/ha in series [7] (0.25 kg/ha, scale 0 to 100) was determined as 100%; in [2] (0.25 kg/ha, scale 0 to 100) it was 98%. The Herbicidal activity was found to be 95 in series [10], 100 in series [11], 20 in series [6] (setting [18]) and 30 in [6] (setting [17]). Moreover, the pest or weed control at 31 g/ha in series [2] (0.031 kg/ha, scale 0 to 100) came to 98%; in [3] (0.031 kg/ha, scale 0 to 100), 98%.

Regarding `Cc1c(C2=C(O)c3ncccc3C(C)(C)S2(=O)=O)ccc(Cl)c1N(C)S(C)(=O)=O` [I-29, N-[6-chloro-3-(8-hydroxy-5,5-dimethyl-6,6-dioxo-thiopyrano[4,3-b]pyridin-7-yl)-2-methyl-phenyl]-N-methyl-methanesulfonamide], the Herbicidal activity in [1] (setting [13]) is recorded as 0; in series [1] (setting [14]), 25; in [1] (setting [15]) it was 35; in [12] (0.25 kg/ha, scale 0 to 100), 98; in series [6] (setting [18]) it was 0; in series [6] (setting [17]) it was 5. The compound further registered a Herbicidal activity in series [6] (setting [16]) of 15. In addition, the pest or weed control at 31 g/ha in [7] (0.031 kg/ha, scale 0 to 100) worked out at 85%; in series [2] (0.031 kg/ha, scale 0 to 100), 95%; in series [3] (0.031 kg/ha, scale 0 to 100) it was 98%. Further, the pest or weed control at 63 g/ha in series [7] (0.063 kg/ha, scale 0 to 100) was found to be 90%; in [2] (0.063 kg/ha, scale 0 to 100), 95%; in series [3] (0.063 kg/ha, scale 0 to 100), 98%. Besides, the pest or weed control at 125 g/ha in series [7] (0.125 kg/ha, scale 0 to 100) is 95%; in series [2] (0.125 kg/ha, scale 0 to 100) it was 98%; in [3] (0.125 kg/ha, scale 0 to 100) it was 98%. Also, the pest or weed control at 250 g/ha in [2] (0.25 kg/ha, scale 0 to 100) is 98%; in series [3] (0.25 kg/ha, scale 0 to 100), 98%.

For `CN(c1c(Cl)ccc(C2=C(O)c3ncccc3CS2(=O)=O)c1C(F)(F)F)S(C)(=O)=O` [I-31, N-[6-chloro-3-(8-hydroxy-6,6-dioxo-5H-thiopyrano[4,3-b]pyridin-7-yl)-2-(trifluoromethyl)phenyl]-N-methyl-methanesulfonamide], the pest or weed control at 125 g/ha in [7] (application rate 0.125 kg/ha), in series [2] (application rate 0.125 kg/ha) and in series [3] (application rate 0.125 kg/ha) was 98% each time. Further, the pest or weed control at 250 g/ha in series [7] (application rate 0.25 kg/ha), in [2] (application rate 0.25 kg/ha) and in series [3] (application rate 0.25 kg/ha) was 98% in each case. Further, the Herbicidal activity in series [12] (application rate 0.031 kg/ha) came to 80; in series [12] (application rate 0.063 kg/ha), 100; in [6] (setting [19]), 5. Besides, the values for the pest or weed control at 63 g/ha in series [3] (application rate 0.063 kg/ha) and in [5] (application rate 0.063 kg/ha) were 98% and 90%, respectively. Further, the pest or weed control at 31 g/ha in series [5] (application rate 0.031 kg/ha) was 70%.

For the compound `CN(c1c(Cl)ccc(C2=C(O)c3ncc(F)cc3C(C)(C)S2(=O)=O)c1Cl)S(C)(=O)=O` [I-38, N-[2,6-dichloro-3-(3-fluoro-8-hydroxy-5,5-dimethyl-6,6-dioxo-thiopyrano[4,3-b]pyridin-7-yl)phenyl]-N-methyl-methanesulfonamide], the Herbicidal activity in series [1] (crop ORYSA (rice), application rate 0.031 kg/ha) was found to be 35; in [4] (application rate 0.125 kg/ha) it was 100; in [6] (setting [19]), 0; in series [6] (crop ZEAMX (corn, maize), application rate 0.063 kg/ha), 0; in [6] (crop ZEAMX (corn, maize), application rate 0.125 kg/ha) it was 15. Moreover, the pest or weed control at 31 g/ha was found to be 95% in [7] (application rate 0.031 kg/ha), 98% in series [2] (application rate 0.031 kg/ha) and 98% in series [3] (application rate 0.031 kg/ha). The pest or weed control at 63 g/ha was determined as 95% in series [7] (application rate 0.063 kg/ha), 98% in series [2] (application rate 0.063 kg/ha) and 95% in series [3] (application rate 0.063 kg/ha). Also, the results for the pest or weed control at 125 g/ha in [7] (application rate 0.125 kg/ha), in [2] (application rate 0.125 kg/ha) and in series [3] (application rate 0.125 kg/ha) were 100%, 98% and 98%, respectively.
